Measured values taken from patent US6884818B1, “Pharmaceutical compositions containing 8-chloro-3 (β-diethylaminoethyl)-4-methyl-7-ethoxycarbonylmethoxy coumarin base and the salts thereof with cholesterol-lowering activity” (Fidia Farmaceutici S.p.A., priority 1999, dated 2005).

What was measured:
[1] = tested on: hypercholesterolaemic-diabetic rabbits; experiment: Test No. 1: tolerability and cholesterol-lowering effect in rabbits on 1% cholesterol diet with alloxan-induced diabetes; type: in vivo, rabbit; settings: for body weight curve: treated chronically for 4-5 weeks, weighed weekly, versus untreated control group (FIG. 1)
Description: A preliminary experiment was performed to assess the ability of cloricromene to reduce plasma levels of cholesterol and triglycerides in rabbits fed on a high-fat diet, treated chronically for 4-5 weeks. As reference product we used scoparone, as it is the only coumarin derivative of vegetable origin with a documented effect on these parameters.
The experimental model induces high levels of cholesterol and triglycerides in the plasma by a 1% cholesterol-enriched diet, simultaneously inducing diabetes by injection of alloxan, a highly toxic product for the β cells of the pancreas. In this way, it is possible to reach very high values of cholesterol and triglycerides in the system rapidly. The body weight of the animals and the plasma levels of the test parameters were assessed weekly throughout the experiment.

[2] = tested on: hypercholesterolaemic-diabetic rabbits; experiment: Test No. 2: weekly cholesterol levels in rabbits with alloxan diabetes on 1% cholesterol diet; type: in vivo
Text: In the same experimental model, in which a diabetic pathology is induced by treating the animals with alloxan, and hypercholesterolaemia is induced by administering a 1% cholesterol diet, we monitored at weekly intervals the cholesterol levels of the rabbits, which had been divided into the following treatment groups: • 1. Control, treated with saline solution • 2. Scoparone • 3. Cloricromene

[3] = tested on: rabbits on a high-cholesterol diet; experiment: Test No. 3: cholesterol levels in rabbits on 0.1% cholesterol diet without diabetes; type: in vivo, rabbit; settings: cholesterol around 250 mg/dl, versus control group and scoparone group (FIG. 3)
Description: As further confirmation of this interesting result, we prepared another experimental model. In this case, hypercholesterolaemia was induced in rabbit by administration of a 0.1% cholesterol diet, without simultaneously inducing diabetes. In these experimental conditions, cholesterol levels of around 250 mg/dl were obtained, that is to say, values that are compatible with the pathological situation normally observed in humans affected by hypercholesterol. The rabbits were divided into three treatment groups: controls treated with saline, a second group receiving scoparone and a third receiving cloricromene.

[4] = tested on: patients with Peripheral Vascular Disease (PVD) at Fontaine stage II; experiment: Multicentre, double-blind, randomised, placebo-controlled study in patients with Peripheral Vascular Disease (Fontaine stage II); type: in vivo, human
Text: We conducted a multicentre, double-blind, randomised study, controlled versus placebo, on 159 patients with Peripheral Vascular Disease (PVD) at Fontaine stage II, the classic symptom of which is Intermittent Claudication (IC).
In our study, besides assessing the effect of cloricromene on IC, we also studied the cholesterol-lowering effects of the drug and the incidence of major cardiovascular events (myocardial infarction, stroke, vascular death, progression to Fontaine stages III-IV) after a treatment period of six months.
In analysing the cholesterol-lowering effect, 117 patients were considered who presented cholesterol values at baseline of over 190 mg/dI.
The critical value of 190 mg/dl was selected on the basis of data from the international literature that report this value as the risk threshold in pathologies such as cardiac ischaemia and atherosclerosis in general, in which excessive cholesterol represents a real risk factor. Therefore, the patients who presented cholesterol values equal to or over 190 mg/dl were considered to be at risk from said pathologies.
For the purposes of this analysis, 58 patients were treated for 6 months with 200 mg of cloricromene per day (one capsule of 100 mg twice a day), while the remaining 59 patients were treated with placebo (Table). All the patients also took aspirin at a dose of 160 mg/day throughout the trial.

[5] = 1% cholesterol diet + alloxan, 4-5 weeks, cloricromene group versus scoparone group

Compound: CCOC(=O)COc1ccc2c(C)c(CCN(CC)CC)c(=O)oc2c1Cl [cloricromene, 8-chloro-3(β-diethylaminoethyl)-4-methyl-7-ethoxycarbonylmethoxy coumarin]
- plasma levels of cholesterol [1, 5]: tended to be lower
- plasma levels of triglycerides [1, 5]: tended to be lower
- body weight curve ([1]; 1% cholesterol diet + alloxan): superimposable on that of the control group
- toxic activity on repeated administration over long periods ([1]; repeated administration, in comparison to scoparone): absolute lack of toxic activity
- cholesterol levels ([2]; 1% cholesterol diet + alloxan, versus saline control and scoparone, evident from third week of treatment (FIG. 2)): markedly lower than those of both the control group and that treated with scoparone
- cholesterol levels [3]: markedly lower
- Cholesterol levels at week 24 ([4]; 58 patients with baseline cholesterol over 190 mg/dl, after 6 months of 200 mg cloricromene per day (100 mg capsule twice a day), plus aspirin 160 mg/day, p = 0.0035 vs week 0): 229 ± 32
- Cholesterol levels at Week 0 ([4]; 58 patients with baseline cholesterol over 190 mg/dl, baseline before 200 mg cloricromene per day, plus aspirin 160 mg/day): 243 ± 31
- difference in cholesterol between treatment groups (analysis of covariance) ([4]; cloricromene versus placebo, 6 months, p=0.04, α=0.05): statistically significant in favour of the group treated with cloricromene
- major cardiovascular events or deaths ([4]; patients, treatment period of six months): no major cardiovascular events or deaths were observed

Compound: COc1cc2ccc(=O)oc2cc1OC [scoparone]
- body weight curve ([1]; 1% cholesterol diet + alloxan): marked and progressive reduction in body weight
- number of animals that completed the treatment ([2]; end of experiment, scoparone group versus cloricromene group): considerably lower
